Consider three molecules from PMC10698726 (Molecular Pharmaceutics, 2023).

In series [1] the target is T1, OCT2 (Homo sapiens, UniProt O15244).
T1 sequence (O15244 1-555): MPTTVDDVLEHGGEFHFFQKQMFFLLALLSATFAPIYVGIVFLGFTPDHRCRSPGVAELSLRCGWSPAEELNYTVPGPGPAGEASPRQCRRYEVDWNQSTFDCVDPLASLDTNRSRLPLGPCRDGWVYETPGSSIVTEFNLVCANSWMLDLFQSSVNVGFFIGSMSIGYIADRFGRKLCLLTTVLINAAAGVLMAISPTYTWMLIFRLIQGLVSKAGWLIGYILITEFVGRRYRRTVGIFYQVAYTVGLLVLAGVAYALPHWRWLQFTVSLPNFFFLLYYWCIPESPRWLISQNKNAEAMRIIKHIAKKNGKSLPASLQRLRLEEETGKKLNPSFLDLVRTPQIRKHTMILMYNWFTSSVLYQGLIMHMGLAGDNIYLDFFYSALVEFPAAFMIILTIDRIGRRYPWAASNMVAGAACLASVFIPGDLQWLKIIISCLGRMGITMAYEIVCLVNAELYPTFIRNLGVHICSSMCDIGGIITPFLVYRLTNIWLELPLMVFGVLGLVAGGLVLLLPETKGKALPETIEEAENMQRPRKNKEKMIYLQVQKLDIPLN
As to the kind of experiment: Inhibition of model substrate uptake in OCT2-overexpressing HEK293 cells. Particulars: for pIC50: IC50, OCT2, Table S5, 2 μM ASP+ as model substrate; for selectivity ratio at 5 min / inhibition at 5 min, 20 μM: human, OCT2-overexpressing HEK293 cells; for selectivity ratio at 5 min: pH 7.4.

In series [2] the target is T2, OCT1 (Homo sapiens, UniProt O15245).
T2 sequence (O15245 1-554): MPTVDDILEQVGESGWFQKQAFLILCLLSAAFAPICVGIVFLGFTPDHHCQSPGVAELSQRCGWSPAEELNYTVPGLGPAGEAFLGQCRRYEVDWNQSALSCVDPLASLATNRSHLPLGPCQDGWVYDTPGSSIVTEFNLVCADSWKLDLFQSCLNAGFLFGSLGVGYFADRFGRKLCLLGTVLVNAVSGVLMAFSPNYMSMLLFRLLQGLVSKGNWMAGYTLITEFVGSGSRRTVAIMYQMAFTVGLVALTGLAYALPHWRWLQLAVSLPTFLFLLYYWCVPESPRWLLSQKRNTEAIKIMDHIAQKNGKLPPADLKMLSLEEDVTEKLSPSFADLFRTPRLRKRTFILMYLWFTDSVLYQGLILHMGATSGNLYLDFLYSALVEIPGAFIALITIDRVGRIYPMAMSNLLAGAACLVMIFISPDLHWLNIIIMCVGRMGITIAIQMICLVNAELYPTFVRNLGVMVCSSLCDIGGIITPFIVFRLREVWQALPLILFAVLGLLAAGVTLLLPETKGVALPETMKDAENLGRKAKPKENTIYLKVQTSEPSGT
As to the kind of experiment: Inhibition of model substrate uptake in OCT1-overexpressing HEK293 cells. Format: cell-based. More on the design: expressed in transfected cells; host or cells: HEK293. The settings on record: for pIC50: 2 μM ASP+ or ethambutol as model substrate; for pIC50 / inhibition at 5 min, 20 μM: 5 min; for inhibition at 5 min, 20 μM / selectivity ratio at 5 min: human, OCT1-overexpressing HEK293 cells; for inhibition at 5 min, 20 μM: OCT1, 20 μM inhibitor; for selectivity ratio at 5 min: pH 7.4, ratio of the IC50 values of both isomers, label = isomer named in the cell (as a rule the one with the higher IC50), read-out: Stereoselectivity (x-fold for the named isomer). As for the experimental part:
Koepsell and Gorbulev (University of Würzburg, Germany).
Fluorescence quantification was performed in technical duplicates.

The mark [3] stands for this setting: pH 7.4, probe ASP+ (2 μM), ASP+ inhibition [%], OCT2, 20 μM inhibitor, 2 μM ASP+, 5 min.
The mark [4] stands for this setting: pH 7.4, probe (S,S)-ethambutol (2 μM), (S,S)-Ethambutol inhibition [%], 2 μM (S,S)-ethambutol.
The mark [5] stands for this setting: pH 7.4, probe ASP+ (2 μM), 2 μM ASP+, mean of three experiments, read-out: ASP+ inhibition [%].
Setting [6] is: pH 7.4, probe sumatriptan (2 μM), 2 μM sumatriptan, read-out: Sumatriptan inhibition [%].
Where [7] appears, read: pH 7.4, probe (S,S)-ethambutol (2 μM), (S,S)-Ethambutol inhibition [%], OCT2, 20 μM inhibitor, 2 μM (S,S)-ethambutol, 5 min.
Setting [8] is: pH 7.4, probe N-ethyllidocaine (2 μM), N-Ethyllidocaine inhibition [%], OCT2, 20 μM inhibitor, 2 μM N-ethyllidocaine, 5 min.

Broadly, the pIC50 is −log10 of the IC50, conventionally taken in molar units. As usually defined, the inhibition is the share of the control response that was lost under treatment.

pIC50: −log10 of the molar value. Like-named read-outs stand apart in the source and are kept apart here.

`CCN(CC)CC#CCOC(=O)[C@](O)(c1ccccc1)C1CCCCC1` [(R)-Oxybutynine]: the pIC50 is 4.50 in series [1] (5 min) and 3.77 in series [2] (IC50, OCT1, Table S5). The “(S,S)-Ethambutol inhibition [%]” value in series [1] (OCT2, 20 μM inhibitor, 2 μM (S,S)-ethambutol, 5 min) is 7.4%. Also, the “N-Ethyllidocaine inhibition [%]” value in series [1] (OCT2, 20 μM inhibitor, 2 μM N-ethyllidocaine, 5 min) is given as 28.2%. Further, the selectivity ratio at 5 min in series [1] was 1.6; in series [2] (OCT1, Table S5), 1.2. In addition, the inhibition at 5 min, 20 μM stood at 86.1% in series [1] (setting [3]), 93.7% in series [2] (setting [4]), 49.1% in series [2] (setting [5]) and 73% in series [2] (setting [6]).
In the case of `CCCN[C@H]1CCc2nc(N)sc2C1` [(S)-Pramipexole], the negative-log IC50 (pIC50) in series [1] (5 min) is 4.08; in series [2] (OCT1, Table S5, read-out: IC50), 4.49. The selectivity ratio at 5 min is 4 in series [1] and 1.6 in series [2] (OCT1, Table S5). Also, the inhibition at 5 min, 20 μM in series [1] (setting [7]) amounted to 15.8%; in series [1] (setting [3]) it was 16.4%; in series [1] (setting [8]) it was 19.6%; in series [2] (setting [4]), 34.9%; in series [2] (setting [5]), 12.1%; in series [2] (setting [6]), 35.6%.
Turning to `CN(C)CCc1c[nH]c2ccc(C[C@H]3COC(=O)N3)cc12` [(S)-Zolmitriptan], the inhibition at 5 min, 20 μM in series [1] (setting [7]) came out at 13.3%; in series [1] (setting [3]), 17.2%; in series [1] (setting [8]) it was 7.3%; in series [2] (setting [4]) it was 26.9%; in series [2] (setting [5]), 10%; in series [2] (setting [6]) it was 44.5%.
